From US20030198941A1, “Method for making an HIV vaccine” (priority 2000, published 2003)
“And” between values parts separate entries of the source, which are not always exact repeats. Equal values may be shown once. Read-outs that look alike come from different tables or passages of the source.

Columns and labels:
[1] = system: epitope-specific CD8+ PBMC of SIV-infected animals; type: cell-based, rhesus macaque; conditions: for avidity of CTL response: PBMC specific for late escaping epitopes; for EC50: read-out: ½maximal IFN-γ release (peptide concentration)
[2] = system: Tat SL8- and Gag CM9-specific CTL lines; assay: 51Cr-release cytotoxicity assay with peptide dilutions, in vitro CTL lines; type: cell-based, rhesus macaque; conditions: CTL lines generated with high (1 μM) and low (1 nM) peptide; read-out: ½maximal specific lysis (peptide concentration)
[3] = system: epitope-specific CTL lines; assay: Intracellular IFN-γ staining (ICS) with peptide dilutions, in vitro CTL lines; type: cell-based, rhesus macaque; conditions: for avidity of CTL response: CTL lines against acute escaped epitopes
[4] = target: rhesus MHC class I molecule Mamu-A*01 (rhesus macaque); assay: competition with 125I-labeled […] for Mamu-A*01; (1.0-relative binding average)x100
[5] = target: rhesus MHC class I molecule Mamu-A*01 (rhesus macaque); assay: competition with 125I-labeled […] for Mamu-A*01; relative to […]
[6] = target: rhesus MHC class I molecule Mamu-A*01 (rhesus macaque)
[7] = system: rhesus MHC class I molecule Mamu-A*01; assay: Mamu-A*01 peptide binding assay (inhibition of binding of a radiolabeled probe peptide); set-up: species or system rhesus macaque; conditions: for % Binding reduction: (1.0-relative binding average)x100, versus index peptide STPESANL; for IC50: soluble Mamu-A*01; for Relative Binding Average: relative to the binding affinity of Tat28-35 STPESANL to Mamu-A*01
Description: Quantitative assays for the binding of peptides to soluble Mamu-A*01 molecules on the basis of the inhibition of binding of a radiolabeled standard probe peptide to detergent-solubilized MHC molecules were performed as previously described (Allen, T. M., et al., J. Immunol. 160:6062-6071, 1998). A position 1 C→A analog of the SIV gag 181-190 peptide ([…]) was utilized as the radiolabeled probe. In the case of competitive assays, the concentration of peptide yielding 50% inhibition of the binding of the radiolabeled probe peptide was calculated. Peptides were initially tested at one or two high doses. The IC50 of peptides yielding positive inhibition were then determined in subsequent experiments, in which two to six further dilutions were tested, as necessary. Since under the conditions to be utilized, where [label]<[MHC] and IC50 ≧[MHC], the measured IC50 values are reasonable approximations of the true Kd values. Each competitor peptide was tested in two to four completely independent experiments. As a positive control, in each experiment the unlabeled version of the radiolabeled probe was tested and its IC50 measured.

[8] = system: CTL lines stimulated with the SL8 index peptide; assay: CTL analyses of SL8-stimulated T-cell lines against index and variant peptides; type: cell-based, rhesus macaque; conditions: E:T ratio 25:1, three peptide dilutions
Description: FIG. 3 is a set of six graphs describing CTL analyses of CD8-positive T-lymphocyte cell lines stimulated with SL8 peptide. Cell lines were stimulated with the index peptide (SL8) and autologous B-LCL. After 2 weeks in culture, these T-cell lines were used in CTL analyses at an Effector:Target (E:T) ratio of 25:1 with the index peptide and the variants. Three different dilutions of peptides were tested.
CTL cultures were established from peripheral blood samples of SIV-infected rhesus macaques drawn in EDTA tubes and CTL were cultured and assayed as previously described (Evans, D. T., et al., supra, 1999).

[9] = competition against 125-labeled peptide […]
[10] = competition against 125-labeled peptide ATPYDINQML

ARRHRILDIYL [Nef_AL11]
avidity of CTL response ([1]; ICS): low avidity

CTPYDINQM [Gag CM9]
EC50 [2]: 1 to 10 nM and 1 to 40 nM
EC50 [1]: 8 nM

GDYKLVEI [Env_GI8]
avidity of CTL response ([1]; ICS): low avidity

GLDKGLSSL [GL9]
avidity of CTL response [3]: high avidity

KRQQELLRL [Env_KL9]
avidity of CTL response ([1]; ICS): low avidity

STPESANL
EC50 [2]: 0.05 to 0.1 nM
EC50 ([3]; CTL lines generated in vitro, read-out: ½maximal IFN-γ production (peptide concentration)): < 0.5 nM
EC50 ([1]; epitope-specific PBMC, ICS): 0.11 nM

Tat28-35 variant ------P (proline at P8) (peptide)
% Binding reduction [4]: > 99%
Relative Binding Average [5]: 0.009

Tat28-35 variant ------Q (glutamine at P8) (peptide)
% Binding reduction [4]: > 99%
Relative Binding Average [5]: 0.003

Tat28-35 variant ------R (arginine at P8) (peptide)
% Binding reduction [4]: > 99%
Relative Binding Average [5]: 0.003

Tat28-35 variant ----L-- (leucine at P5) (peptide)
% Binding reduction [4]: 85%
Relative Binding Average [5]: 0.155

Tat28-35 variant -I---- (isoleucine at P2) (peptide)
% Binding reduction [4]: > 99%
Relative Binding Average [5]: 0.009

Tat28-35 variant P------ (proline at P1) (peptide)
Relative Binding Average [5]: 0.43
% Binding reduction [6]: 67%

YTSGPGIRY [YY9]
avidity of CTL response [3]: high avidity

variant of the Tat STPESANL epitope with arginine at P8 [------R]
% Binding reduction [7]: >99%
IC50 [7, 9]: 15.1 µM
Relative Binding Average [7]: 0.003

variant of the Tat STPESANL epitope with glutamine at P8 [------Q]
% Binding reduction [7]: >99%
IC50 [7, 10]: 13.2 µM
Relative Binding Average [7]: 0.003

variant of the Tat STPESANL epitope with isoleucine at P2 [-I----]
% Binding reduction [7]: >99%
IC50 [7, 9]: 4.61 µM
Relative Binding Average [7]: 0.009

variant of the Tat STPESANL epitope with leucine at P5 [----L--]
% Binding reduction [7]: 85%
% Binding reduction ([7]; listed as leucine at P5): > 80%
% Binding reduction ([7]; listed as leucine substitution at P5): more than 80%
IC50 [7, 10]: 0.281 µM
Relative Binding Average [7]: 0.155
CTL recognition / sensitizing targets for CTL lysis [8]: least efficient at sensitizing targets for CTL lysis

variant of the Tat STPESANL epitope with proline at P1 [P------]
% Binding reduction [7]: 67%
% Binding reduction ([7]; listed as proline at P1): more than 50%
% Binding reduction ([7]; listed as proline substitution at P1): more than 50%
IC50 [7, 9]: 0.1 µM
Relative Binding Average [7]: 0.43

variant of the Tat STPESANL epitope with proline at P8 [------P]
% Binding reduction [7]: >99%
IC50 [7, 9]: 4.57 µM
Relative Binding Average [7]: 0.009
